Data reported in patent US7897723B2, “ErbB receptor-derived peptide fragments” (Københavns Universitet, priority 2006, dated 2011).
Bridges are numbered along the chain shown (N, C = ends). Roman numbers before positions name the chains, in order. Where no end group is shown, it is not given here.

Tests used:
HN5 cells = assay: Cell viability / cell growth (MTS staining); format: cell-based, human; conditions: absence and presence of EGF, absence and presence of serum (FIGS. 6A and B)
Protocol: 2000 HN5 cells per well were seeded in a 96 well plate in full medium (containing 10% fetal calf serum) or starvation medium (serum-free). After 12 hours of incubation, peptides or ErbB1 kinase inhibitor PD153035 (Calbiochem) and/or EGF (Sigma-Aldrich) were added in the concentrations indicated in figures. Cells were grown for 72 hours, then 20 μl MTS One Solution Reagent (Promega, Madison, Wis., USA) were added per 100 μl culture medium in each well, and the plates were incubated for 1-2 hours at 37° C., followed by absorbance measurements at 490 nm.

L929 cells = assay: Cell proliferation (BrdU incorporation); format: cell-based; conditions: L929 cells
Protocol: 2000 L929 cells (ECACC no: 85011425) per well were seeded in a 96 well plate in full medium (containing 10% foetal calf serum) or starvation medium (serum-free). Peptides, ErbB1 kinase inhibitor PD153035 (Calbiochem), and EGF (Sigma-Aldrich) were added immediately after seeding of the cells (for experiments done in full serum) or after 8 hours of incubation (for experiments done in starvation medium) in the concentrations indicated in figures. Cells were grown for 6 hours, then 10 μM bromodeoxyuridine (BrdU) was added, and cells were grown for additional 18 hours. Then, BrdU incorporation in the cells was assayed using the Biotrak ELISA System, version 2 from Amersham Biosciences Europe GmbH (Buckinghamshire, UK) following the manufacturer's protocol.

[1] = target: T1, extracellular part of human ErbB2 (Fc chimeric protein) (Homo sapiens, UniProt P04626); assay: Surface plasmon resonance (SPR) binding analysis, ErbB2; conditions: peptide immobilized on sensor chip, mean ± SEM
T1 construct: the Fc protein fused to the extracellular parts of human ErbB2, ErbB3 or ErbB4; purchased R&D Systems Europe (Abingdon, UK)
T1 sequence (P04626 23-652 limits assumed, change not shown): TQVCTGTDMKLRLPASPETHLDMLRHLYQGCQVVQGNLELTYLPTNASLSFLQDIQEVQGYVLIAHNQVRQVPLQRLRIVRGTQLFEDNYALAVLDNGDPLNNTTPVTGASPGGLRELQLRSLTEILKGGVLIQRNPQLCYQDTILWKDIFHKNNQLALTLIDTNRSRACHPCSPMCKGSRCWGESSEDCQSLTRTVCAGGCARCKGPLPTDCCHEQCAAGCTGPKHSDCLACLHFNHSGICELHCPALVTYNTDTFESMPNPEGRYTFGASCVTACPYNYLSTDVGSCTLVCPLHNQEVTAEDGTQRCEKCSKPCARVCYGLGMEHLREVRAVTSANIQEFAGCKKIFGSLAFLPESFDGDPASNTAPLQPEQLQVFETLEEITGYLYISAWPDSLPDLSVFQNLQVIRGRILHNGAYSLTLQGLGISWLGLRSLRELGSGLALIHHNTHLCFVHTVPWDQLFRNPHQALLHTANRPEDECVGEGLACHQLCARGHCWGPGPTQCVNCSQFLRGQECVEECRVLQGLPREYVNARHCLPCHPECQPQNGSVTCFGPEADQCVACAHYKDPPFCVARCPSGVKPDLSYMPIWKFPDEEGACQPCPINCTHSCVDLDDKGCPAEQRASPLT
Protocol: (§1) Binding analyses were performed with the surface plasmon resonance (SPR)-based biosensor instrument BIAcore2000 (BIAcore AB, Uppsala, Sweden), at 25° C. using ready-made HBS-EP buffer (BIAcore AB) as running buffer. Peptides were immobilized on the surface of a CM5 sensor chip (BIAcore AB) using an amine coupling kit (Biosensor AB, Uppsala, Sweden) according to the manufacturer's instructions, at a flow rate of 5 μl/min. Briefly, carboxyl groups on the sensor chip surface were activated by injection of 35 μl activation solution followed by injection of peptide (50 μg/ml peptide in HBS-EP buffer, pH 7.4) until the desired level of immobilized peptide was reached. Unreacted peptide was washed out and unreacted activated groups were blocked by the injection of 35 μl 1 M ethanolamine. […] A reference surface was generated simultaneously under the same conditions but without peptide injection and used as a blank chip control. ErbB receptor proteins were injected at various concentrations at a flow rate of 20 μl/min, and binding to the peptides immobilized on the chip was measured in real-time. The curve corresponding to the difference between signals on flow cells with immobilized peptide and the signal on the blank flow cell was used for analysis. […] Data were analyzed by nonlinear curve fitting using the manufacturer' software. […]

[2] = target: T2, extracellular part of human ErbB4 (Fc chimeric protein) (Homo sapiens, UniProt Q15303); assay: Surface plasmon resonance (SPR) binding analysis, ErbB4; conditions: peptide immobilized on sensor chip, mean ± SEM
T2 construct: the Fc protein fused to the extracellular parts of human ErbB2, ErbB3 or ErbB4; purchased R&D Systems Europe (Abingdon, UK)
T2 sequence (Q15303 26-651 limits assumed): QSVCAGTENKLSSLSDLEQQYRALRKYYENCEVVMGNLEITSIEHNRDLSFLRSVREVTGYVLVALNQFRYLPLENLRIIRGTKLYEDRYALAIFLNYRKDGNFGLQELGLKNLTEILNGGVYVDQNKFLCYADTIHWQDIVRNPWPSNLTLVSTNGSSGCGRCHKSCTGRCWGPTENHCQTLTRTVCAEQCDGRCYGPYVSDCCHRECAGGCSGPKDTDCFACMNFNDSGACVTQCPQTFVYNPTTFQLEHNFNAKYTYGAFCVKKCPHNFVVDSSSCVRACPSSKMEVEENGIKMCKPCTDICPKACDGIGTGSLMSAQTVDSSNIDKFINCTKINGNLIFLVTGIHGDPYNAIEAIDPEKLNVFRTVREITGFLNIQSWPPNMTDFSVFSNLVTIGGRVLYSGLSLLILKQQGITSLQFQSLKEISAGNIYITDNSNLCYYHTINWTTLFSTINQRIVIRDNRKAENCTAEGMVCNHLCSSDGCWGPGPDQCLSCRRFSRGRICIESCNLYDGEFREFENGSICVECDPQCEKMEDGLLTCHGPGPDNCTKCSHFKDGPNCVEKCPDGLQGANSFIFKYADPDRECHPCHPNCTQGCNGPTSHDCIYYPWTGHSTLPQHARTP
Protocol: as §1

ErbB1 = ErbB1 (Homo sapiens, UniProt P00533); assay: ErbB receptor phosphorylation, HN5 cells; format: cell-based; parameters: the ErbB1 overexpressing human head and neck cancer cell line HN5; endogenous in cells; host or cells: HN5 human head and neck cancer cells; conditions: 100 μM peptide for 30 min, 10 ng/ml EGF for 10 min (FIG. 8)
Protocol: The cells employed for this assay were NR6 wtEGFR cells, which are fibroblastoid cells stably transfected with ErbB1, and human head and neck tumor-derived HN5 cell. Confluent NR6 wtEGFR or HN5 cells were treated with peptide in the indicated concentrations for 30 min, then stimulated with 10 ng/ml EGF (Sigma-Aldrich, St. Louis, Mo., USA) for 10 min. Cells were lysed in lysis buffer (1% (v/v) Triton X-100, 150 mM NaCl, 10 mM Tris pH 7.4, 1 mM EDTA, 1 mM EGTA, 0.5% (v/v) NP-40, phosphatase inhibitors (Phosphatase Inhibitor Cocktail Set II from Calbiochem, La Jolla, Calif., USA) and protease inhibitors (Complete™ Protease Inhibitor Cocktail from Boehringer Mannheim Biochemica, Mannheim, Germany)), and cleared lysate samples containing equal amounts of total protein (as determined by a bicinchoninic acid assay (Pierce, Rockford, Ill., USA)) were subjected in duplicates to 4-12% SDS-PAGE and immunoblotting. One membrane was probed with anti-phospho-EGFR (phosphotyrosine 1068) antibody (Cell Signaling Technology, Danvers, Mass., USA), the other with anti-EGFR antibody (Cell Signaling Technology). Detection was carried out using horseradish peroxidase (HRP)-conjugated secondary antibodies (DAKO, Denmark) and enhanced chemiluminiscence (Pierce). The intensity of bands was quantified using densitometric analysis employing the software package GeneTools (Syngene, Cambridge, UK).

[3] = starvation medium, 10 or 100 ng/ml EGF, BrdU incorporation (FIG. 4)
[4] = full medium, BrdU incorporation (FIG. 2, FIG. 3)

## KHKLPYNFNLETTVQPL (also: tetrameric dendrimer on lysine backbone) [Scr-Inherbin3d, reference compound]
HN5 cells
  effect on HN5 cell growth: no significant effects on HN5 cell growth

## COc1cc2ncnc(Nc3cccc(Br)c3)c2cc1OC [PD153035, reference compound]
L929 cells; [3]
  effect on EGF-induced cell proliferation: blocked cell proliferation induced by stimulation with either 10 or 100 ng/ml EGF
HN5 cells
  effect on HN5 cell growth: strongly inhibited growth of the cells both in absence and presence of EGF-stimulation and in the absence and presence of serum

## I: H-MLYNPTTYQMDVNPEGKKK / II: H-MLYNPTTYQMDVNPEGKK / III: H-MLYNPTTYQMDVNPEGK / IV: H-MLYNPTTYQMDVNPEGK (amide I:18-IV:C, I:19-II:C, II:18-III:C) [Inherbin 1DL, MLYNPTTYQMDVNPEGK]
[1]
  KD for binding to ErbB2: No binding
[2]
  KD for binding to ErbB4: No binding

## Inherbin3n: truncated peptide constituting the N-terminal half of the Inherbin3 peptide (possibly B3dln, SEQ ID NO: 36) (PLVYNKLT; B3dln peptide)
L929 cells; [4]
  effect on EGF-induced cell proliferation: inhibited EGF-induced cell proliferation to the same extent as Inherbin3

## I: LVYNKLTFQLEPNPHTKKK / II: LVYNKLTFQLEPNPHTKK / III: LVYNKLTFQLEPNPHTK / IV: LVYNKLTFQLEPNPHTK (amide I:18-IV:C, I:19-II:C, II:18-III:C) [Inherbin3d]
[1]
  KD for binding to ErbB2: No binding
[2]
  KD for binding to ErbB4: No binding
L929 cells; proliferation induced by either 10 or 100 ng/ml EGF (FIG. 4)
  peptide doses that significantly inhibited cell proliferation: ≥ 0.6 µM
L929 cells; [3]
  effect on EGF-induced cell proliferation: inhibited EGF-induced cell proliferation

## VTYNTDTFESMPNPEGR (Inherbin 2 peptide) [Inherbin2]
L929 cells; [4]
  effect on EGF-induced cell proliferation: able to inhibit EGF-induced cell proliferation significantly
ErbB1
  effect on EGF-induced ErbB1 phosphorylation: not statistically significant
